The target of this test is T1, human kinase Mps-1 (Homo sapiens, UniProt P33981).
T1 construct: N-terminally GST-tagged human full length recombinant Mps-1 kinase; GST (N); purchased Invitrogen, Karslruhe, Germany PV4071
T1 sequence (P33981 1-857): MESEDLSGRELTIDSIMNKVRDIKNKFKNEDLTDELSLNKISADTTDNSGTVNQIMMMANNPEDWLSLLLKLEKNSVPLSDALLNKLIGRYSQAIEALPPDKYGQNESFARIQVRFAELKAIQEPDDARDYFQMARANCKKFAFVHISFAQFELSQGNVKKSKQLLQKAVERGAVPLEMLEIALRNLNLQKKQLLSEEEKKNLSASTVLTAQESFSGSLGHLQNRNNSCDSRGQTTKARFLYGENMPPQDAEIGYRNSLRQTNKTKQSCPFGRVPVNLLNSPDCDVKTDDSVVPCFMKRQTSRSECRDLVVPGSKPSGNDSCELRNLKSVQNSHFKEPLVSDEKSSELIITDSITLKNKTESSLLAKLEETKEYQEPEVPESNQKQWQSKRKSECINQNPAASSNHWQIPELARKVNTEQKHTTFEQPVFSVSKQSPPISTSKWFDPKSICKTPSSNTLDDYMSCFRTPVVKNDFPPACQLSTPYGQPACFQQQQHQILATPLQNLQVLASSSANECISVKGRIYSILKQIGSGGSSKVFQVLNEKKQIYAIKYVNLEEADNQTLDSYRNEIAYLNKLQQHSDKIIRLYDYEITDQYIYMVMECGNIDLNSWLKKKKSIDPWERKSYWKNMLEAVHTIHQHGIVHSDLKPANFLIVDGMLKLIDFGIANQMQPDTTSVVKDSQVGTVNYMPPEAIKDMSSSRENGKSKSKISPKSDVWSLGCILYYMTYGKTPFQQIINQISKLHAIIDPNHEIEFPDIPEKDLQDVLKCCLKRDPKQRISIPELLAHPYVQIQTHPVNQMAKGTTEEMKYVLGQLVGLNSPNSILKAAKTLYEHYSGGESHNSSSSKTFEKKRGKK
Briefly: Mps-1 kinase assay (TR-FRET). The settings on record: Mps-1 TR-FRET kinase assay; avg; read-out: Mps1 avg (IC50 [mol/l]). The test is classed as biochemical. In short, it runs like this:
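GST-tagged full-length recombinant human Mps-1 (~0.5 nM) pre-incubated 15 min with compound, then reacted 60 min at 22 °C with 10 μM ATP and 1 μM biotinylated peptide in Hepes pH 7.7 buffer. EDTA-stopped; TR-FRET (Eu anti-phospho-Ser/Thr to SA-XLent) 665/620 nm ratio normalised to no-inhibitor and no-enzyme controls.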
In general terms: TR-FRET usually uses a lanthanide donor and a delayed reading to cut background.

The values below come from patent publication US20170334899A1, “AMINO-SUBSTITUTED ISOTHIAZOLES” (Bayer Pharma Aktiengesellschaft, priority 2014, published 2017).

pIC50: −log10 of the molar value. Bounds are passed on as bounds.

As for `Cc1nsc(Nc2ccc(C#N)cn2)c1C(=O)Nc1ccc(OC2CCN(CCF)CC2)nc1` [Example 29, 5-[(5-Cyanopyridin-2-yl)amino]-N-(6-{[1-(2-fluoroethyl)piperidin-4-yl]oxy}pyridin-3-yl)-3-methyl-1,2-thiazole-4-carboxamide], the pIC50 was not above 4.70.
Next, `Cc1nsc(Nc2cnc(C(F)(F)F)cn2)c1C(=O)Nc1ccc(O[C@H]2CCN(CC(F)(F)F)C[C@@H]2F)nc1` [Example 363, N-(6-{[(3S,4S)-3-fluoro-1-(2,2,2-trifluoroethyl)piperidin-4-yl]oxy}pyridin-3-yl)-3-methyl-5-{[5-(trifluoromethyl)pyrazin-2-yl]amino}-1,2-thiazole-4-carboxamide]: less than 4.70.
As for `Cc1nsc(Nc2cnc(C(F)(F)F)cn2)c1C(=O)Nc1ccc(O[C@@H]2CCN(CCC(F)(F)F)C[C@H]2F)nc1` [Example 368, N-(6-{[(3R,4R)-3-fluoro-1-(3,3,3-trifluoropropyl)piperidin-4-yl]oxy}pyridin-3-yl)-3-methyl-5-{[5-(trifluoromethyl)pyrazin-2-yl]amino}-1,2-thiazole-4-carboxamide], the pIC50 was less than 4.70.
Turning to `Cc1nsc(Nc2cnc(C(F)(F)F)cn2)c1C(=O)Nc1ccc(OC2CCCN(C(CF)CF)C2)nc1` (centres unmarked) [Example 333, N-(6-{[1-(1,3-difluoropropan-2-yl)piperidin-3-yl]oxy}pyridin-3-yl)-3-methyl-5-{[5-(trifluoromethyl)pyrazin-2-yl]amino}-1,2-thiazole-4-carboxamide], the pIC50 is not above 4.70.
Take `Cc1nsc(Nc2cnc(C(F)(F)F)cn2)c1C(=O)Nc1ccc(N2CCN(CCC(F)(F)F)CC2)cn1` [Example 374, 3-methyl-5-{[5-(trifluoromethyl)pyrazin-2-yl]amino}-N-{5-[4-(3,3,3-trifluoropropyl)piperazin-1-yl]pyridin-2-yl}-1,2-thiazole-4-carboxamide]: the pIC50 is less than 4.70.
As for `Cc1nsc(Nc2cnc(C(F)(F)F)cn2)c1C(=O)Nc1ccc(C2CCN(CC(F)(F)F)CC2)nc1` [Example 358, 3-methyl-N-{6-[1-(2,2,2-trifluoroethyl)piperidin-4-yl]pyridin-3-yl}-5-{[5-(trifluoromethyl)pyrazin-2-yl]amino}-1,2-thiazole-4-carboxamide], the pIC50 was less than 4.70.
Regarding `Cc1nsc(Nc2cnc(C(F)(F)F)cn2)c1C(=O)Nc1ccc(N2CCN(CCC(F)(F)F)CC2)nc1` [Example 361, 3-methyl-5-{[5-(trifluoromethyl)pyrazin-2-yl]amino}-N-{6-[4-(3,3,3-trifluoropropyl)piperazin-1-yl]pyridin-3-yl}-1,2-thiazole-4-carboxamide], the pIC50 was less than 4.70.
For `Cc1nsc(Nc2cnc(C(F)(F)F)cn2)c1C(=O)Nc1ccc(OC[C@@H]2CCCN(CC(F)F)C2)nc1` [Example 375, N-(6-{[(3R)-1-(2,2-difluoroethyl)piperidin-3-yl]methoxy}pyridin-3-yl)-3-methyl-5-{[5-(trifluoromethyl)pyrazin-2-yl]amino}-1,2-thiazole-4-carboxamide] the value was less than 4.70.
